Test results reported in patent EP4467141A1, “PYRAZOLO-QUINOLINES AS SELECTIVE INHIBITORS OF GENOTOXIC STRESS-INDUCED IKK/NF- KB PATHWAYS FOR CANCER THERAPY” (Max-Delbrück-Centrum für Molekulare Medizin in der …, priority 2023, dated 2024).

Experiments:
Test in all cases: Kinase panel study
Assay type in all cases: biochemical
Settings in all cases: read-out: Percentage of inhibition; for inhibition at 1 µM: 1000nM; for inhibition at 10 µM: 10000nM
SRC N1 = biological target: T1, SRC N1 (Homo sapiens, UniProt P12931)
T1 construct: purchased Thermo Fisher Scientific
In short: (§1)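 A commercial kinase profiling service ran the assays according to its ZLyte or Adapta standard protocols. Compound was present at 10 µM or 1 µM, and kinase activity loss was expressed as percent inhibition.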

PRKCI (PKC iota) = biological target: T2, PRKCI (PKC iota) (Homo sapiens, UniProt P41743)
T2 construct: purchased Thermo Fisher Scientific
T2 sequence (P41743 1-596): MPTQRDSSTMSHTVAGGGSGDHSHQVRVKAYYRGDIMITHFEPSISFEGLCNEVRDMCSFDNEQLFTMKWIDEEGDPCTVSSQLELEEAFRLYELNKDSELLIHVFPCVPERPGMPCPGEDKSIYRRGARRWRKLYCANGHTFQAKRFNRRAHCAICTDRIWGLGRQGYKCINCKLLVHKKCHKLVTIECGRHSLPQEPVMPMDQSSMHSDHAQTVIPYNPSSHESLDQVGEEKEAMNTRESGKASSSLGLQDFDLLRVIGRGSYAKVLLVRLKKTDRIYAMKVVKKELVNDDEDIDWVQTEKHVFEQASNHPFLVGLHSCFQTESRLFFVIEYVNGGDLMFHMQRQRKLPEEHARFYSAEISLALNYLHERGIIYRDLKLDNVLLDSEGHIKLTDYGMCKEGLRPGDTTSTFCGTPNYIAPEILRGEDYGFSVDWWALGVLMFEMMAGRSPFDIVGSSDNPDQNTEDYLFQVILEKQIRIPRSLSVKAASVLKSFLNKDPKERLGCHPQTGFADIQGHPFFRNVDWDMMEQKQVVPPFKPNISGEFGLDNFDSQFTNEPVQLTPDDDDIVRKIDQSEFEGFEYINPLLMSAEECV
In short: as §1

CSNK1E (CK1 epsilon) = biological target: T3, CSNK1E (CK1 epsilon) (Homo sapiens, UniProt P49674)
T3 construct: purchased Thermo Fisher Scientific
In short: as §1

KIT V559D V654A = biological target: T4, KIT V559D V654A (Homo sapiens, UniProt P10721, V559D/V654A)
T4 construct: purchased Thermo Fisher Scientific
In short: as §1

EGFR (ErbB1) T790M = biological target: T5, EGFR (ErbB1) T790M (Homo sapiens, UniProt P00533, T790M)
T5 construct: purchased Thermo Fisher Scientific
In short: as §1

SRC = biological target: T6, SRC (Homo sapiens, UniProt P12931)
T6 construct: purchased Thermo Fisher Scientific
In short: as §1

LRRK2 G2019S FL = biological target: T7, LRRK2 G2019S FL (Homo sapiens, UniProt Q5S007, G2019S)
T7 construct: LRRK2 G2019S FL; purchased Thermo Fisher Scientific
In short: as §1

GRK5 = biological target: T8, GRK5 (Homo sapiens, UniProt P34947)
T8 construct: purchased Thermo Fisher Scientific
In short: as §1

SBK1 = biological target: T9, SBK1 (Homo sapiens, UniProt Q52WX2)
T9 construct: purchased Thermo Fisher Scientific
In short: as §1

INSR = biological target: T10, INSR (Homo sapiens, UniProt P06213)
T10 construct: purchased Thermo Fisher Scientific
In short: as §1

ACVR1B (ALK4) = biological target: T11, ACVR1B (ALK4) (Homo sapiens, UniProt P36896)
T11 construct: purchased Thermo Fisher Scientific
T11 sequence (P36896 24-505): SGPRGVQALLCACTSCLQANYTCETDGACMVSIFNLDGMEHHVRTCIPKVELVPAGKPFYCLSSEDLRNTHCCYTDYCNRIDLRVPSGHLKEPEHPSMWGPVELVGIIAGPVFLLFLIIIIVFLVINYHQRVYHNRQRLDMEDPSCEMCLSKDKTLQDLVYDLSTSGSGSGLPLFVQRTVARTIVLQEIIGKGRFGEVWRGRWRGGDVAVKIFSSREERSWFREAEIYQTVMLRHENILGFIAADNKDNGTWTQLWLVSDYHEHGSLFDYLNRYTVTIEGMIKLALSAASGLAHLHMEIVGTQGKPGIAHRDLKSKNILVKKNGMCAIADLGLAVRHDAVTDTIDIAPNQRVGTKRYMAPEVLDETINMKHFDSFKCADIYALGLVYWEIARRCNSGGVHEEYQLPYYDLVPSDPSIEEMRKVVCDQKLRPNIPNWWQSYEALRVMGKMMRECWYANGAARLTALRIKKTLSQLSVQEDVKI
In short: as §1

LYN A = biological target: T12, LYN A (Homo sapiens, UniProt P07948)
T12 construct: purchased Thermo Fisher Scientific
In short: as §1

IGF1R = biological target: T13, IGF1R (Homo sapiens, UniProt P08069)
T13 construct: purchased Thermo Fisher Scientific
In short: as §1

LTK (TYK1) = biological target: T14, LTK (TYK1) (Homo sapiens, UniProt P29376)
T14 construct: purchased Thermo Fisher Scientific
In short: as §1

T13 sequence (P08069 31-1367): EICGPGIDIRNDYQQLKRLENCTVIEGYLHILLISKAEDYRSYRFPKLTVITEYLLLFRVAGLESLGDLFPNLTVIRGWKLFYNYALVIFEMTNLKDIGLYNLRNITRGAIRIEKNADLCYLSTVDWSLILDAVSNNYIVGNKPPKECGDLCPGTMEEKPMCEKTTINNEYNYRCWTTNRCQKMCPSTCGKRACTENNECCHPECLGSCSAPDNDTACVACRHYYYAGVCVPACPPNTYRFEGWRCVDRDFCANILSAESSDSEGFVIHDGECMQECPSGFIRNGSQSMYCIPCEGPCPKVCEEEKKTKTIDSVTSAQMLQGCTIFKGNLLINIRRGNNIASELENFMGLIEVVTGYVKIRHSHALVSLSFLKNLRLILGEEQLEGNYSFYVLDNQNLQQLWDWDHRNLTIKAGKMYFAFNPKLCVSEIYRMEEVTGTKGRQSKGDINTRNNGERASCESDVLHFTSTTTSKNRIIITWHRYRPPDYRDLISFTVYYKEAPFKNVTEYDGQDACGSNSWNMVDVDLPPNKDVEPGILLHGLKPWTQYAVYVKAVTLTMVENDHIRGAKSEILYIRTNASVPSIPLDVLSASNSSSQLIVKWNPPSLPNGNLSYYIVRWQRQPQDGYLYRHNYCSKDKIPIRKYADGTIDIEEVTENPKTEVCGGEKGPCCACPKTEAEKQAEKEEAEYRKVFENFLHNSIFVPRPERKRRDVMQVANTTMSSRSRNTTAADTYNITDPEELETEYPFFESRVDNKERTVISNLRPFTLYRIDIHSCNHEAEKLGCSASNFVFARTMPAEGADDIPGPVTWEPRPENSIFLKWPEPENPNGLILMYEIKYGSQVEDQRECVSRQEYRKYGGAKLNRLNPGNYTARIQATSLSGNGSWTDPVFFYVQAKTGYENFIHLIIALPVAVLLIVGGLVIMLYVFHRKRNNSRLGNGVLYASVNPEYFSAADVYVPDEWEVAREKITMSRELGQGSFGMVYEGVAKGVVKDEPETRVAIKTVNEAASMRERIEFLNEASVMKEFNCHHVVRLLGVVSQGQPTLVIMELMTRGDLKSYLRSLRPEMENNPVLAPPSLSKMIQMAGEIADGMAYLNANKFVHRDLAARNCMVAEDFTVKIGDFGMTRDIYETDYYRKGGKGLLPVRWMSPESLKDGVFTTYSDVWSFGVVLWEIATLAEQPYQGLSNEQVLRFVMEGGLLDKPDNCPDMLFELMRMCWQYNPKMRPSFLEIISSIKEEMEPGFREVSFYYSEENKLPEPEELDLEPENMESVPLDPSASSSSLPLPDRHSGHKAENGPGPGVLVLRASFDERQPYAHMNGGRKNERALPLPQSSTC
T9 sequence (Q52WX2 whole entry): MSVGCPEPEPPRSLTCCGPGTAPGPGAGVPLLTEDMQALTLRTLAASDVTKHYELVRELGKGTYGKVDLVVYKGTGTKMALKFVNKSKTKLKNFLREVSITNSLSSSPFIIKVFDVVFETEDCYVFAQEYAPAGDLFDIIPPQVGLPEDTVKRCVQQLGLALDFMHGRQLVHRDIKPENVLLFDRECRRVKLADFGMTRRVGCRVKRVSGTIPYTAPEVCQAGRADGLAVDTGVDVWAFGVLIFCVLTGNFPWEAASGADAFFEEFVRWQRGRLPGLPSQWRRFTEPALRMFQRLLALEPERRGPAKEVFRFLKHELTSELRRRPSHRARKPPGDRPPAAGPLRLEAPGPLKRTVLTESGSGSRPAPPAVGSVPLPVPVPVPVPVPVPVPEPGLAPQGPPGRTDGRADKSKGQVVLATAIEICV
T7 sequence (Q5S007 whole entry G2019S): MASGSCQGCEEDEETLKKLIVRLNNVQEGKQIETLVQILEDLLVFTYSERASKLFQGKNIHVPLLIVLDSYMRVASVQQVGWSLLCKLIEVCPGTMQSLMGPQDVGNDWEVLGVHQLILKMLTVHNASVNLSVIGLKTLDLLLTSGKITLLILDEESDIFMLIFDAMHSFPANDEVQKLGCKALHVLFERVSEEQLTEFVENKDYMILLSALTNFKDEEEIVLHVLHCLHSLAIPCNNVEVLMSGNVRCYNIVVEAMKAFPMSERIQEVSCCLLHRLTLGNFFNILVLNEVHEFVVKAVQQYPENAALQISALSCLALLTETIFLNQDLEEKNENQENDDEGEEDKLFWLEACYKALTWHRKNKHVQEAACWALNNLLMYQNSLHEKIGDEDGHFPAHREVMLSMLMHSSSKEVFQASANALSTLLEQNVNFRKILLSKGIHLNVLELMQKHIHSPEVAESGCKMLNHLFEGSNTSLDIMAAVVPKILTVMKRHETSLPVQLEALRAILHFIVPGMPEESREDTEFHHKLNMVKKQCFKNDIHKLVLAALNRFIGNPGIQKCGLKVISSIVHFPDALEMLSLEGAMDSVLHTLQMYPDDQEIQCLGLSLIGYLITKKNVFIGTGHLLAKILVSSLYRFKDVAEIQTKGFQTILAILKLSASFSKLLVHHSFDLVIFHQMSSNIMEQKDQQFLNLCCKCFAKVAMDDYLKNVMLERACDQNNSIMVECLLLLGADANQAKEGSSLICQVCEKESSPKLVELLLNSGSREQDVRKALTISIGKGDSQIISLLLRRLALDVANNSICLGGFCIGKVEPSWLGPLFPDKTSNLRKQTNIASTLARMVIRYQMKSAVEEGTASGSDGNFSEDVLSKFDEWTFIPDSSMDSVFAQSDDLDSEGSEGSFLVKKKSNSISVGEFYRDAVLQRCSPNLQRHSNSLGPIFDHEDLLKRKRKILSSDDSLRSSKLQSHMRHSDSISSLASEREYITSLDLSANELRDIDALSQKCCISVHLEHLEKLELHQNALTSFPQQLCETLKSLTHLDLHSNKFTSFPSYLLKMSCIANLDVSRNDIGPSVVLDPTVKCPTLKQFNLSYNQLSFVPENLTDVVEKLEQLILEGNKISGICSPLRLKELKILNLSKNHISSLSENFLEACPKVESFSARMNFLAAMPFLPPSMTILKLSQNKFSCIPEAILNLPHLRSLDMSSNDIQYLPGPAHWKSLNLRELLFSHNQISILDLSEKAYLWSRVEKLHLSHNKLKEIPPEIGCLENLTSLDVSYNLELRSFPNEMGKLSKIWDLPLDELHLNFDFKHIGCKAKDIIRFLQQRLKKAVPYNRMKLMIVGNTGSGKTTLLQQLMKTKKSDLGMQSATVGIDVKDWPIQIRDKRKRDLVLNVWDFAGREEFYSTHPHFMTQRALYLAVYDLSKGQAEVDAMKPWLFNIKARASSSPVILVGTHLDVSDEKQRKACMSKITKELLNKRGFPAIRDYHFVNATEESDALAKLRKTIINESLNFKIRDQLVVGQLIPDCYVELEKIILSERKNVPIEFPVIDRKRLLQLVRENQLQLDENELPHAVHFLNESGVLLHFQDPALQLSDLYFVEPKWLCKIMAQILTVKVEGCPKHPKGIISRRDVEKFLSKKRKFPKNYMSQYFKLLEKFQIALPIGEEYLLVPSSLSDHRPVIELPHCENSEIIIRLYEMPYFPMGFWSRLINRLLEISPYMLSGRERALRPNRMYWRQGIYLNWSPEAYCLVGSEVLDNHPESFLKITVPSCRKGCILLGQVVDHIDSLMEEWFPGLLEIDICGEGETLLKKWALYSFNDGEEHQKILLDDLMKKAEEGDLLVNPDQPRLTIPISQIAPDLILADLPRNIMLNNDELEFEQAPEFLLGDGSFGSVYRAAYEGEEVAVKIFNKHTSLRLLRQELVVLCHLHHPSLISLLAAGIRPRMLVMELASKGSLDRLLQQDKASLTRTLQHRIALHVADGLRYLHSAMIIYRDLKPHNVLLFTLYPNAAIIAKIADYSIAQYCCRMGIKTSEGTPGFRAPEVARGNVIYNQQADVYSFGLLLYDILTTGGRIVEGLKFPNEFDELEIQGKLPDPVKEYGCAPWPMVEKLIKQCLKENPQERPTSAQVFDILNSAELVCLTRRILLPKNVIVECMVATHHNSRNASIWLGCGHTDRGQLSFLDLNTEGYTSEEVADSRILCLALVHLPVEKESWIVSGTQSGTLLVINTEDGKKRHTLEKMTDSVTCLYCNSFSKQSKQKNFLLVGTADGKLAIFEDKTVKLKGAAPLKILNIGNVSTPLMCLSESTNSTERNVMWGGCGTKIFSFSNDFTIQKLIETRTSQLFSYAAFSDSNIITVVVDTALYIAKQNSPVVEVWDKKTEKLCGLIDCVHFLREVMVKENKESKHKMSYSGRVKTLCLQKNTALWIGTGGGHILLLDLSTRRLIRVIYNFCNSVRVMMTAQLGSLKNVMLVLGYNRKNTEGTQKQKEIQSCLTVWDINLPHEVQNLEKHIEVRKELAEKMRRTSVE
T12 sequence (P07948 whole entry): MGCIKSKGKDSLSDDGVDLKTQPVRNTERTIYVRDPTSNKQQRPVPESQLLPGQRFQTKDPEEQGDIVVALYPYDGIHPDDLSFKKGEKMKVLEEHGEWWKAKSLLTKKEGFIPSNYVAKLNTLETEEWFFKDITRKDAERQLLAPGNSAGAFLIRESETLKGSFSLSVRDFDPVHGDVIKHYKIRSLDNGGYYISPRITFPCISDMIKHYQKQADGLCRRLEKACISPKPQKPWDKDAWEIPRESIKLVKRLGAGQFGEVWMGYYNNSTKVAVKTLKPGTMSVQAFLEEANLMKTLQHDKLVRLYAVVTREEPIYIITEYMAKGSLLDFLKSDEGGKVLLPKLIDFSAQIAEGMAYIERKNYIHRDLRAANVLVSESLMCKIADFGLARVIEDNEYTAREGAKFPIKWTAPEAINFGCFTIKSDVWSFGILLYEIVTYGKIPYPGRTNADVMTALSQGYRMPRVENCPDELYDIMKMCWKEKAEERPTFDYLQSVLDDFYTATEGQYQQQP

SMILES | inhibition at 1 µM (SRC N1) | inhibition at 10 µM (SRC N1) | inhibition at 1 µM (PRKCI (PKC iota)) | inhibition at 10 µM (PRKCI (PKC iota)) | inhibition at 1 µM (CSNK1E (CK1 epsilon)) | inhibition at 10 µM (CSNK1E (CK1 epsilon)) | inhibition at 1 µM (KIT V559D V654A) | inhibition at 10 µM (KIT V559D V654A) | inhibition at 1 µM (EGFR (ErbB1) T790M) | inhibition at 10 µM (EGFR (ErbB1) T790M) | inhibition at 1 µM (SRC) | inhibition at 10 µM (SRC) | inhibition at 1 µM (LRRK2 G2019S FL) | inhibition at 10 µM (LRRK2 G2019S FL) | inhibition at 1 µM (GRK5) | inhibition at 10 µM (GRK5) | inhibition at 1 µM (SBK1) | inhibition at 10 µM (SBK1) | inhibition at 1 µM (INSR) | inhibition at 10 µM (INSR) | also measured
COc1ccc2c(c1OC)c(=O)n1c3ccc(O)cc3c3ccnc2c31 [MW01, 5-Hydroxy-10,11-dimethoxy-9H-benzo[c]indolo[3,2,1-ij][1,5]naphthyridin-9-one] | 15% | 25% | 4% | -8% | 6% | 32% | -10% | -12% | 8% | 19% | 0% | 16% | 87% | 90% | -3% | 0% | 3% | 3% | 1% | 11% | inhibition at 1 µM (ACVR1B (ALK4)): -9%; inhibition at 10 µM (ACVR1B (ALK4)): -3%; inhibition at 1 µM (LYN A): 5%; inhibition at 10 µM (LYN A): 18%; inhibition at 1 µM (IGF1R): 11%; inhibition at 10 µM (IGF1R): 31%; inhibition at 1 µM (LTK (TYK1)): 19%; inhibition at 10 µM (LTK (TYK1)): 44%
COc1ccc2cc3c(N)nn(C(=O)c4cccc(N(C)C)c4)c3nc2c1 [MW05, (3-Amino-7-methoxypyrazolo[3,4-b]quinolin-1-yl)-[3-(dimethylamino)phenyl]methanone] | 16% | 14% | 20% | 6% | 2% | 0% | -16% | -37% | 4% | 0% | 6% | 3% | -1% | 11% | -2% | 0% | -7% | -26% | 8% | -7% | inhibition at 1 µM (ACVR1B (ALK4)): 1%; inhibition at 10 µM (ACVR1B (ALK4)): -8%; inhibition at 1 µM (LYN A): 1%; inhibition at 10 µM (LYN A): -6%; inhibition at 1 µM (IGF1R): -1%; inhibition at 10 µM (IGF1R): -12%; inhibition at 1 µM (LTK (TYK1)): 7%; inhibition at 10 µM (LTK (TYK1)): -9%
